Like-named read-outs stand apart in the source and are kept apart here.
Assays:
[1] = system: epimastigotes of T. cruzi (Tulahuen 2 strain); design: method as in PMID 25512408; details: reference trypanosomicidal drugs; read-out: IC50 against epimastigotes of T. cruzi (reference drugs); cited from earlier work
[2] = system: T. cruzi cells (Y strain, DTU Tc II); test: 1H-NMR study of the excreted metabolites; type: cell-based, Trypanosoma cruzi
Description: To gain insight into the changes promoted by the active 3-propylidene[1,2]dithioles 2 and 14 in some biochemical pathways, the metabolites excreted by the parasite using ^1H-NMR spectroscopy were analyzed. Changes in the excreted metabolites by T. cruzi Y strain (DTU Tc II, [24]), when the parasite cells were exposed to a bioactive compound, could be indicative of the modification of the biochemical pathway(s) by the agents. Spectra of the cell-free milieu of treated parasites were compared with those of the untreated T. cruzi-free milieu as the control. We focused mainly on the changes of excreted salts of the carboxylic acids, lactate (Lac), acetate (Ace), pyruvate (Pyr), and succinate (Succ) and the amino acids, alanine (Ala) and glycine (Gly), among the most relevant modified metabolites.
For the ^1H-NMR spectroscopic studies, T. cruzi cells (Y strain, DTU Tc II) treated for 2 days, with each studied compound at concentrations corresponding to 2 × IC50 values (5 mL) were centrifuged at 1500× g for 10 min at 4 °C. The pellet was discarded, and the parasite-free supernatant was stored at −20 °C until use. Before measuring, DMF (0.1 mL, 10 mM) as the internal standard and D2O (0.1 mL) were added to the supernatant (0.3 mL). ^1H-NMR experiments were recorded at 20 °C on a Bruker Advance DPX-400 spectrometer (Bruker), operating at 400.132 MHz, with a 5 mm broadband inverse geometry probe. The acquisition parameters included: 90° pulse (zgpr, advance-version v 1.7.10.2, 1D sequence with f1 presaturation), 128 scans, and spectral width of 14.983 ppm. The acquisition time was 1.3664 s. Signal intensities were calculated by performing appropriate baseline corrections and then integrating the area under each of the resonances using MestRe-C NMR software. Spectra were analyzed using the Topspin 1.3 software package. The spectra were registered with water suppression in 5 mm NMR (Aldrich, St. Louis, MO, USA) sample tubes. The chemical displacements used to identify the respective metabolites were previously confirmed by adding each analyzed metabolite to the studied supernatant, as well as by the study of a control solution with 4 μg/mL of each metabolite in buffer (phosphate, pH = 7.4). Each run was done at least in triplicate and the Student t test was used to analyze the significance of the changes. […]

[3] = system: J774.1 murine macrophages; test: Unspecific in vitro cytotoxicity of mammalian cells (MTT); type: cell-based; details: Mus musculus, 48 h exposure, read-out: IC50 against Macrophages
Description: (§1) To evaluate the anti-trypanosomal activity of the synthesized 3H-[1,2]dithioles we used T. cruzi, Tulahuen 2 strain (discrete typing unit, DTU, TcVI [18]) in the epimastigote form. […] To establish the selectivity of the compounds against the parasite, unspecific cytotoxicity against mammalian cells (J774.1 murine macrophages) was studied for the most relevant derivatives. The selectivity indexes (SI) were also determined (Table 1).
J774.1 murine macrophage cells (ATCC, Manassas, VA, USA) were grown in DMEM culture milieu containing 4 mM L-glutamine and supplemented with 10% heat-inactivated fetal calf serum. […] Afterwards, cells were exposed for 48 h to the compounds (25–400 μM) or vehicle for control (0.4% DMSO), and additional controls (cells in medium) were used in each test. Cell viability was then assessed by measuring the mitochondria-dependent reduction of MTT (3-(4,5-dimethylthiazol-2-yl)-2,5-diphenyltetrazolium bromide) to formazan. For this purpose, MTT in sterile PBS (0.2% glucose) pH 7.4 was added to the macrophages to achieve a final concentration of 0.1 mg/mL and the cells were incubated at 37 °C for 3 h. After removing the medium, formazan crystals were dissolved in 180 μL of DMSO and 20 μL of MTT buffer (0.1 M glycine, 0.1 M NaCl, 0.5 mM EDTA, pH 10.5) and the absorbance at 560 nm was measured. The IC50 was defined as the drug concentration at which 50% of the cells were viable, relative to the control (no drug added), and was determined by analysis using OriginLab8.5® sigmoidal regression (% of viable cells vs. logarithm of the compound concentration). Samples were performed in triplicate.

cruzipain [4] = molecular target: T1, cruzipain (Trypanosoma cruzi, UniProt P25779); test: Inhibition of T. cruzi cruzipain (Z-Phe-Arg-AMC fluorogenic substrate); type: biochemical; details: percentage of enzymatic inhibition at 100 μM; read-out: Cruzipain % Inhib100
T1 construct: endogenous in cells; host or cells: T. cruzi epimastigotes, Tulahuen 2 strain
T1 sequence (P25779 123-467): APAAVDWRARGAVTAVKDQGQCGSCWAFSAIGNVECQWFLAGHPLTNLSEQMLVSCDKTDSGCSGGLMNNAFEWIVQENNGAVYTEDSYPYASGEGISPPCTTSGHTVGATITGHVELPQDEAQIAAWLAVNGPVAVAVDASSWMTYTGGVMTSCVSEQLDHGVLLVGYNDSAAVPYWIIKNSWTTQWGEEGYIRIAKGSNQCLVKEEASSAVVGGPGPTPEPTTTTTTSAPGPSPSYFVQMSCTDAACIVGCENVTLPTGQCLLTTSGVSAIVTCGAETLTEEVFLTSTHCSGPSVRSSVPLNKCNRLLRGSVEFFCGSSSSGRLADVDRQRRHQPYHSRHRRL
Description: Initially, we tested the dithioles as inhibitors of the protease cruzipain from T. cruzi at a concentration of 100 μM.
Cruzipain was purified to homogeneity from epimastigotes of the Tulahuen 2 strain by ConA-Sepharose affinity chromatography, as previously described. Cruzipain (2.5 μM ε = 58,285 M^−1·cm^−1) was incubated in 50 mM acetate buffer pH 5.5 with 50 mM DTT and 100 μM inhibitor was added, shaking the solution for 15 min at 27 °C. The derivatives were added diluted in DMSO, and the controls contained the same solvent concentration. The concentration of DMSO never exceeded 1% in the reaction medium. E-64 was used as a positive control of inhibition. Then, the fluorogenic substrate Z-Phe-Arg-AMC (100 μM) was added and the fluorescence was measured during 10 min at intervals of 3 s (excitation at 350 nm and emission at 460 nm) using a Varioskan Flash Spectrophotometer. From the slope of the negative control, we calculated the total (100%) enzyme activity, while the slopes obtained in the presence of the compounds yielded the percentage of remaining enzyme activity. The percentage of enzyme inhibition was determined as […]. The experiments were done in duplicate.

[5] = system: epimastigotes of T. cruzi (Tulahuen 2 strain); test: Anti-T. cruzi test in vitro (epimastigote growth inhibition); type: cell-based, Trypanosoma cruzi; details: for IC50: Trypanosoma cruzi, epimastigotes, Tulahuen 2 strain, triplicate, read-out: IC50 against T. cruzi
Description: as §1
We used epimastigotes of the Tulahuen 2 strain (DTU, Tc VI) growing in an axenic milieu (BHI-Tryptose). Cells from a 5–7-day-old culture were inoculated in fresh culture milieu to give an initial concentration of 1 × 10^6 cells/mL. The absorbance at 600 nm of the cells in culture was measured every day. At day 5, the milieu was inoculated with different quantities of the compounds from a stock solution in DMSO (DMSO concentration in the culture milieu never exceeded 0.4%). The control was made in the presence of 0.4% DMSO and in the absence of compounds. […] At day 5, the absorbance of the culture was measured and related to the control. The IC50 value was taken as the concentration of drug needed to reduce the absorbance ratio to 50%.

[6] = molecular target: T2, Trypanosoma cruzi triosephosphate isomerase (TcTIM) (Trypanosoma cruzi, UniProt P52270); test: Inhibition of enzymatic activity of TcTIM; type: biochemical; details: for inhibition at 25 µM: percentage of enzymatic inhibition at 25 μM, read-out: TcTIM % Inhib25; for inhibition at 200 µM: percentage of enzymatic inhibition at 200 μM, read-out: TcTIM % Inhib200
T2 construct: made in house; host or cells: Escherichia coli
T2 sequence (P52270 whole entry): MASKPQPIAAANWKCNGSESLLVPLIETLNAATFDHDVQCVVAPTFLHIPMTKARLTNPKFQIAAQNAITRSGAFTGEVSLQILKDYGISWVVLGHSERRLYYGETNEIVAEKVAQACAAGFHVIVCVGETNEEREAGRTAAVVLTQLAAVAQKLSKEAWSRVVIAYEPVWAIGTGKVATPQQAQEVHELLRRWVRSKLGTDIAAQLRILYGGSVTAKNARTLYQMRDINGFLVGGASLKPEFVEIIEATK
Description: In order to investigate if the 3H-[1,2]dithioles inhibit TcTIM, we initially tested the inhibitory capacity of the compounds at a concentration of 200 μM and then at 25 μM.
Expression and purification of protein: TcTIM was expressed in Escherichia coli and purified as described in the literature. After purification, the enzyme, dissolved in 100 mM triethanolamine, 10 mM EDTA and 1 mM dithiothreitol (pH 8), was precipitated with ammonium sulfate (75% saturation) and stored at 4 °C. Before use, extensive dialysis against 100 mM triethanolamine/10 mM EDTA (pH 7.4) was performed. Protein concentration was determined by absorbance at 280 nm (ε = 36,440 M^−1·cm^−1).
Enzymatic activity assays. Enzymatic activity was determined following the conversion of glyceraldehyde 3-phosphate into dihydroxyacetone phosphate. The decrease in absorbance at 340 nm was followed in a multicell Cary spectrophotometer at 25 °C. The reaction mixture (1 mL, pH 7.4) contained 100 mM triethanolamine, 10 mM EDTA, 0.2 mM NADH, 1 mM glyceraldehyde 3-phosphate, and 0.9 units of α-glycerol phosphate dehydrogenase. The reaction was initiated by addition of 5 ng/mL of the TcTIM.
For inactivation studies, TcTIM was incubated at a concentration of 5 mg/mL in a buffer containing 100 mM triethanolamine, 10 mM EDTA, pH 7.4 and 10% of DMSO at 36 °C. The mixture also contained the compounds at the indicated concentrations. Compounds were dissolved in DMSO. After 2 h, […] was withdrawn and added to 1 mL of reaction mixture for the activity assay. None of the molecules tested here affected the activity of α-glycerol phosphate dehydrogenase, the enzyme used for trapping the product.
The IC50 value was taken as the concentration of drug needed to reduce the enzymatic activity to 50%. The experiments were performed in triplicate.

cruzipain [7] = molecular target: T1, cruzipain; test: Inhibition of T. cruzi cruzipain (Z-Phe-Arg-AMC fluorogenic substrate); type: biochemical; details: isolated enzyme
[8] = system: membrane sterol biosynthesis in epimastigotes of Y strain of T. cruzi; test: Inhibition of membrane sterol biosynthesis (qualitative TLC); type: cell-based, Trypanosoma cruzi; details: compounds at their IC50, 72 h, 28 °C, compared to control
Description: To do so, we analyzed the accumulation or depletion of some intermediates or final products of this biochemical pathway. Qualitative analyses were performed by thin layer chromatography (TLC).
The parasites, epimastigotes of Y strain of T. cruzi (DTU Tc II), were grown in 6 mL of BHT milieu in culture bottles. […] A negative control was performed with parasites in the absence of compounds. […] The extraction of membrane sterols was performed on completion of the incubation. For this purpose, the content of the culture bottle was centrifuged at 3000 rpm for 10 min, the supernatant was discarded and the pellet was suspended in sodium phosphate buffer solution (6 mL, 0.05 M, pH 7.4). Then it was centrifuged again at 3000 rpm for 10 min and the supernatant was discarded. The resulting pellet was resuspended in a chloroform/methanol (2:1) mixture (5 mL) and the suspension was kept at 4 °C for 12 h. Then, a saturated NaCl solution (5 mL) was added and the mixture extracted once with chloroform (3 mL) and once with hexane (3 mL) with care to avoid taking any aqueous phase. The extracted volume was applied to a silica gel TLC plate. Chromatography was performed eluting with hexane, two runs to identify squalene, and once with hexane/EtOAc (8:2) for ergosterol. […] Also, controls and commercial samples of ergosterol, lanosterol, cholesterol and squalene were run on the TLC plate. […]

T. cruzi = details: positive control of the sterol study; source not given; read-out: IC50 of terbinafine; cited from earlier work
[9] = IC50 × 2, 2 days, DMF internal standard

## CC1CS(=O)(=O)CCN1/N=C/c1ccc([N+](=O)[O-])o1 (centres unmarked) [Nfx, nifurtimox]
[1]
  IC50: 8 ± 1 µM

## O=C(CS/C(C(=O)c1ccc2ccccc2c1)=C1\C=C(c2ccc(O)cc2)SS1)c1ccc2ccccc2c1 [Derivative 14]
[2]; [9]
  Concentration of excreted Ace: 26.41 ± 1.44
  Concentration of excreted Ala: 20.65 ± 1.27
  Concentration of excreted Gly: 2.48 ± 0.14
  Concentration of excreted Lac: 10.41 ± 0.58
  Concentration of excreted Pyr: 9.47 ± 0.53
  Concentration of excreted Succ: 7.34 ± 0.65
[2]; IC50 × 2, p < 0.05 Student's t-test
  Change of excreted metabolites compared to the control: did not modify the excreted catabolites
[3]
  IC50: 63 ± 2 µM
Cruzipain [4]
  inhibition at 100 µM: 66.5 ± 0.3%
[5]
  IC50: 4.9 ± 1.1 µM
[6]
  inhibition at 25 µM: 38 ± 3.5%
  inhibition at 200 µM: 70%

## COc1ccc(C2=C/C(=C(\SCC(C)=O)C(C)=O)SS2)cc1 [Derivative 15]
[3]
  IC50: < 24 µM
Cruzipain [7]
  IC50: 15.1 ± 2.5 µM
Cruzipain [4]
  inhibition at 100 µM: 85.4 ± 0.2%
[5]
  IC50: 5.9 ± 1.2 µM
[5]; macrophages (J774.1) vs T. cruzi epimastigotes
  SI (selectivity index): <4.1
[6]
  inhibition at 25 µM: 62 ± 3%
  inhibition at 200 µM: 86%

## CN(C/C=C/C#CC(C)(C)C)Cc1cccc2ccccc12 [terbinafine, reference compound]
[8]
  Changes in membrane sterols and intermediates (squalene, ergosterol): accumulate squalene and deplete ergosterol
T. cruzi
  IC50: 44.7 µM

## O=C(Cn1ccnc1[N+](=O)[O-])NCc1ccccc1 [Bnz, benznidazole]
[1]
  IC50: 7 ± 1 µM

Source: publication PMC6332334, “3-H-[1,2]Dithiole as a New Anti-Trypanosoma cruzi Chemotype: Biological and Mechanism of Action Studies” (Molecules, 2015)
